This assay concerns the target P70S6K (T412E mutant) (Homo sapiens (Human), UniProt P23443, T412E). Nature of the assay: P70S6K enzyme assay. It counts as biochemical. To be noted: read-out: IC50 p70S6K. How it is done:
P70S6K inhibitor compounds are diluted and plated in 96 well plates. […] The reaction is incubated for 90 min at 25° C., before the addition of 10 mM EDTA to stop the reaction. The proportion of substrate and product (phosphorylated) peptide is analysed on a Caliper Life Sciences Lab Chip 3000, using a pressure of −1.4 psi, and upstream and downstream voltages of −3000 and −700 respectively. Product peaks are resolved before substrate peaks on the resulting chromatograms.

The record followed here is patent US9145392B2, “Imidazole amines as modulators of kinase activity” (Merck Patent GmbH, priority 2011, dated 2015).

A word on the IC50: it is the concentration at which inhibition is half-maximal.

P70S6K (T412E mutant), sequence (P23443 whole entry T412E): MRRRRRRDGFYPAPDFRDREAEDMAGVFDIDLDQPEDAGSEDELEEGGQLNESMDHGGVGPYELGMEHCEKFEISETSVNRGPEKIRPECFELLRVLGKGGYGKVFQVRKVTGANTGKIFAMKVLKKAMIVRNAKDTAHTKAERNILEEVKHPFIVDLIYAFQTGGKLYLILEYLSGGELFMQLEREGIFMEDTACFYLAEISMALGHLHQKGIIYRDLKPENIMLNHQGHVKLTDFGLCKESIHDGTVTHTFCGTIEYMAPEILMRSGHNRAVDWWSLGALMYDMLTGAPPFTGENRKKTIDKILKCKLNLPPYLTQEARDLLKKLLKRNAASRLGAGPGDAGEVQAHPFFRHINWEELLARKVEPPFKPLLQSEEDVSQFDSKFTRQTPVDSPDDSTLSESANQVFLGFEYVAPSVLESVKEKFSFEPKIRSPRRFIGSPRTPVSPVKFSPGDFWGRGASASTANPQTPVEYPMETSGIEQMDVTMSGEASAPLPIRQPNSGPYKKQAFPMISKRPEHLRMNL

Regarding `Cn1cc(-c2ccc(F)c(C(F)(F)F)c2)nc1C1CCN(c2ncnc(N)c2-c2cnc(N)nc2)CC1` [Compound 28, 6′-{4-[4-(4-Fluoro-3-trifluoromethyl-phenyl)-1-methyl-1H-imidazol-2-yl]-piperidin-1-yl}-[5,5]bipyrimidinyl-2,4′-diamine], the IC50 was found to be 4.4 nM.

On to `Cn1cc(-c2ccc(F)c(C(F)(F)F)c2)nc1C1CCN(c2ncncc2-c2ccc(F)cc2)CC1` [Compound 42, 5-(4-Fluoro-phenyl)-4-{4-[4-(4-fluoro-3-trifluoromethyl-phenyl)-1-methyl-1H-imidazol-2-yl]-piperidin-1-yl}-pyrimidine], for which the IC50 was 5.4 nM.

Consider `Cn1cc(-c2ccc(F)c(C(F)(F)F)c2)nc1C1CCN(c2ncnc(N)c2-c2ccc(CN)cc2)CC1` [Compound 32, 5-(4-Aminomethyl-phenyl)-6-{4-[4-(4-fluoro-3-trifluoromethyl-phenyl)-1-methyl-1H-imidazol-2-yl]-piperidin-1-yl}-pyrimidin-4-ylamine], for which the IC50 was 4.2 nM.

With `Cn1cc(-c2ccc(F)c(C(F)(F)F)c2)nc1C1CCN(c2ncnc(N)c2/C=C/C(N)=O)CC1` [Compound 46, (E)-3-(4-Amino-6-{4-[4-(4-fluoro-3-trifluoromethyl-phenyl)-1-methyl-1H-imidazol-2-yl]-piperidin-1-yl}-pyrimidin-5-yl)-acrylamide], the IC50 is 14 nM.

Regarding `COc1ccc(-c2cnccc2N2CCC(c3nc(-c4cccc(C(F)(F)F)c4)c[nH]3)CC2)cc1` [Compound 35, 3-(4-methoxyphenyl)-4-(4-{4-[3-(trifluoromethyl)phenyl]-1H-imidazol-2-yl}piperidin-1-yl)pyridine], the IC50 came to 9 nM.

As for `Cn1cc(-c2ccc(F)c(C(F)(F)F)c2)nc1C1CCN(c2ncnc(N)c2-c2cccc(Cl)c2)CC1` [Compound 51, 5-(3-Chloro-phenyl)-6-{4-[4-(4-fluoro-3-trifluoromethyl-phenyl)-1-methyl-1H-imidazol-2-yl]-piperidin-1-yl}-pyrimidin-4-ylamine], the IC50 was found to be 22 nM.

For the compound `Cn1cc(-c2ccc(F)c(C(F)(F)F)c2)nc1C1CCN(c2cc(N)ncn2)CC1` [Compound 12, 6-{4-[4-(4-Fluoro-3-trifluoromethyl-phenyl)-1-methyl-1H-imidazol-2-yl]-piperidin-1-yl}-pyrimidin-4-ylamine], the IC50 was 87 nM.

On to `Cn1cc(-c2ccc(F)c(C(F)(F)F)c2)nc1C1CCN(c2ncnc(N)c2-c2ccc(C(F)(F)F)cc2)CC1` [Compound 16, 6-{4-[4-(4-Fluoro-3-trifluoromethyl-phenyl)-1-methyl-1H-imidazol-2-yl]-piperidin-1-yl}-5-(4-trifluoromethyl-phenyl)-pyrimidin-4-ylamine], for which the IC50 was determined as 21 nM.

`Cn1cc(-c2ccc(F)c(C(F)(F)F)c2)nc1C1CCN(c2ncnc(N)c2-c2ccc(N3CCOCC3)nc2)CC1` [Compound 25, 6-{4-[4-(4-Fluoro-3-trifluoromethyl-phenyl)-1-methyl-1H-imidazol-2-yl]-piperidin-1-yl}-5-(6-morpholin-4-yl-pyridin-3-yl)-pyrimidin-4-ylamine]: the IC50 stood at 190 nM.

As to `Cn1cc(-c2ccc(F)c(C(F)(F)F)c2)nc1C1CCN(c2ncnc(N)c2-c2ccccc2)CC1` [Compound 21, 6-{4-[4-(4-Fluoro-3-trifluoromethyl-phenyl)-1-methyl-1H-imidazol-2-yl]-piperidin-1-yl}-5-phenyl-pyrimidin-4-ylamine], the concentration for half-maximal inhibition (IC50) was 3.7 nM.

Consider `CCc1c(N)ncnc1N1CCC(c2nc(-c3ccnc(C(F)(F)F)c3)cn2CCNC)CC1` [Compound 171, 5-ethyl-6-(4-(1-(2-(methylamino)ethyl)-4-(2-(trifluoromethyl)pyridin-4-yl)-1H-imidazol-2-yl)piperidin-1-yl)pyrimidin-4-amine], for which the IC50 was 0.6 nM.

Turning to `CN(C)c1ncc(-c2c(N)ncnc2N2CCC(c3nc(-c4ccc(F)c(C(F)(F)F)c4)cn3C)CC2)cn1` [Compound 31, 6′-{4-[4-(4-Fluoro-3-trifluoromethyl-phenyl)-1-methyl-1H-imidazol-2-yl]-piperidin-1-yl}-N2,N2-dimethyl-[5,5]bipyrimidinyl-2,4′-diamine], the IC50 is 7.5 nM.

Turning to `Cn1cc(-c2ccc(F)c(C(F)(F)F)c2)nc1C1CCN(c2ncnc(N)c2-c2ccc(F)c(F)c2)CC1` [Compound 30, 5-(3,4-Difluoro-phenyl)-6-{4-[4-(4-fluoro-3-trifluoromethyl-phenyl)-1-methyl-1H-imidazol-2-yl]-piperidin-1-yl}-pyrimidin-4-ylamine], the IC50 stood at 6.3 nM.

On to `Cn1cc(-c2ccc(F)c(C(F)(F)F)c2)nc1C1CCN(c2ncnc(N)c2-c2ccc(C#N)c(F)c2)CC1` [Compound 52, 4-(4-Amino-6-{4-[4-(4-fluoro-3-trifluoromethyl-phenyl)-1-methyl-1H-imidazol-2-yl]-piperidin-1-yl}-pyrimidin-5-yl)-2-fluoro-benzonitrile], for which the IC50 stood at 5 nM.

Consider `Cn1cc(-c2ccc(F)c(C(F)(F)F)c2)nc1C1CCN(c2ncnc(N)c2-c2ccccc2Cl)CC1` [Compound 24, 5-(2-Chlorophenyl)-6-{4-[4-(4-fluoro-3-trifluoromethyl-phenyl)-1-methyl-1H-imidazol-2-yl]-piperidin-1-yl}-pyrimidin-4-ylamine], for which the IC50 was found to be 5.3 nM.

Regarding `Cn1cc(-c2ccc(F)c(C(F)(F)F)c2)nc1C1CCN(c2ncnc(N)c2-c2ccc(N3CCNCC3)nc2)CC1` [Compound 26, 6-{4-[4-(4-Fluoro-3-trifluoromethyl-phenyl)-1-methyl-1H-imidazol-2-yl]-piperidin-1-yl}-5-(6-piperazin-1-yl-pyridin-3-yl)-pyrimidin-4-ylamine], the IC50 turned out to be 1000 nM.

Turning to `COc1ccc(-c2c(N)ncnc2N2CCC(c3nc(-c4cccc(C(F)(F)F)c4)c[nH]3)CC2)cc1` [Compound 33, 5-(4-Methoxy-phenyl)-6-{4-[4-(3-trifluoromethyl-phenyl)-1H-imidazol-2-yl]-piperidin-1-yl}-pyrimidin-4-ylamine], the IC50 came to 2.7 nM.

With `Cn1cc(-c2ccc(F)c(C(F)(F)F)c2)nc1C1CCN(c2ncnc(N)c2-c2cccc(F)c2)CC1` [Compound 22, 5-(3-Fluoro-phenyl)-6-{4-[4-(4-fluoro-3-trifluoromethyl-phenyl)-1-methyl-1H-imidazol-2-yl]-piperidin-1-yl}-pyrimidin-4-ylamine], the 50% inhibitory concentration (IC50) is 1.6 nM.

Turning to `CCOc1c(N)ncnc1N1CCC(c2nc(-c3ccc(F)c(Cl)c3)cn2CCN2CCCC2)CC1` [Compound 289], the IC50 was found to be 0.8 nM.

Regarding `Cn1c(-c2ccc(F)c(C(F)(F)F)c2)cnc1C1CCN(c2ncnc(N)c2Br)CC1` [Compound 2, 5-Bromo-6-{4-[5-(4-fluoro-3-trifluoromethyl-phenyl)-1-methyl-1H-imidazol-2-yl]-piperidin-1-yl}-pyrimidin-4-ylamine], the IC50 is 57 nM.

Take `COc1ccc(-c2cncnc2N2CCC(c3nc(-c4cccc(C(F)(F)F)c4)c[nH]3)CC2)cc1` [Compound 34, 5-(4-Methoxy-phenyl)-4-{4-[4-(3-trifluoromethyl-phenyl)-1H-imidazol-2-yl]-piperidin-1-yl}-pyrimidine]: the IC50 came out at 12 nM.

Turning to `COC(=O)/C=C/c1c(N)ncnc1N1CCC(c2nc(-c3ccc(F)c(C(F)(F)F)c3)cn2C)CC1` [Compound 45, (E)-3-(4-Amino-6-{4-[4-(4-fluoro-3-trifluoromethyl-phenyl)-1-methyl-1H-imidazol-2-yl]-piperidin-1-yl}-pyrimidin-5-yl)-acrylic acid methyl ester], the IC50 was 3.5 nM.

`Cn1cc(-c2ccc(F)c(C(F)(F)F)c2)nc1C1CCN(c2ncnc(N)c2-c2ccc(Cl)nc2)CC1` [Compound 50, 5-(6-Chloro-pyridin-3-yl)-6-{4-[4-(4-fluoro-3-trifluoromethyl-phenyl)-1-methyl-1H-imidazol-2-yl]-piperidin-1-yl}-pyrimidin-4-ylamine]: the IC50 turned out to be 4.5 nM.

As to `Cn1cc(-c2ccc(F)c(C(F)(F)F)c2)nc1C1CCN(c2ncnc(N)c2-c2ccccc2F)CC1` [Compound 23, 5-(2-Fluorophenyl)-6-{4-[4-(4-fluoro-3-trifluoromethyl-phenyl)-1-methyl-1H-imidazol-2-yl]-piperidin-1-yl}-pyrimidin-4-ylamine], the IC50 amounted to 3 nM.

On to `COc1cncc(-c2c(N)ncnc2N2CCC(c3nc(-c4ccc(F)c(C(F)(F)F)c4)cn3C)CC2)c1` [Compound 47, 6-{4-[4-(4-Fluoro-3-trifluoromethyl-phenyl)-1-methyl-1H-imidazol-2-yl]-piperidin-1-yl}-5-(5-methoxy-pyridin-3-yl)-pyrimidin-4-ylamine], for which the IC50 worked out at 4.3 nM.

Take `Cn1cc(-c2ccc(F)c(C(F)(F)F)c2)nc1C1CCN(c2ncnc(N)c2-c2ccccc2C#N)CC1` [Compound 18, 2-(4-Amino-6-{4-[4-(4-fluoro-3-trifluoromethyl-phenyl)-1-methyl-1H-imidazol-2-yl]-piperidin-1-yl}-pyrimidin-5-yl)-benzonitrile]: the IC50 was found to be 250 nM.

`Cn1cc(-c2ccc(F)c(C(F)(F)F)c2)nc1C1CCN(c2ncnc(N)c2-c2ccc(F)nc2)CC1` [Compound 27, 5-(6-Fluoro-pyridin-3-yl)-6-{4-[4-(4-fluoro-3-trifluoromethyl-phenyl)-1-methyl-1H-imidazol-2-yl]-piperidin-1-yl}-pyrimidin-4-ylamine]: the IC50 amounted to 3 nM.

Consider `FC(F)(F)c1cccc(-c2c[nH]c(C3CCN(c4ccncc4Br)CC3)n2)c1` [Compound 5, 3-bromo-4-(4-{4-[3-(trifluoromethyl)phenyl]-1H-imidazol-2-yl}piperidin-1-yl)pyridine], for which the half-inhibitory concentration (IC50) came out at 315 nM.

With `COc1cccc(-c2c(N)ncnc2N2CCC(c3nc(-c4ccc(F)c(C(F)(F)F)c4)cn3C)CC2)c1` [Compound 29, 6-{4-[4-(4-Fluoro-3-trifluoromethyl-phenyl)-1-methyl-1H-imidazol-2-yl]-piperidin-1-yl}-5-(3-methoxyphenyl)-pyrimidin-4-ylamine], the IC50 worked out at 9.8 nM.
